The results in this text go back to DBAASP.

In brackets after ≈: the same amount, converted by molar mass. Several values for one entry are separate records, joined by “and”; a condition that tells them apart may be missing. Identical values can stand only once.

Test in all cases: ≥ marks a high value that may be exact or a test limit, other limits are often not marked, values filed in µg/mL are converted to µM
The test system of test [1] is Staphylococcus aureus ATCC 43300.
A further test has as its system Escherichia coli UB1005.
Test [2] deals with Pseudomonas aeruginosa ATCC 27853.
In test [3] the test system is Bacillus subtilis CMCC 63501.
The test system of test [4] is Staphylococcus epidermidis ATCC 12228.
Test [5] concerns Salmonella typhimurium ATCC 7731.
Test [6] has as its system Salmonella enterica subsp. enterica serovar Pullorum C79-13.
Test [7] has as its system Enterococcus faecalis ATCC 29212.
Test [8] deals with Salmonella typhimurium KCTC 1926.
Test [9] concerns Escherichia coli ATCC 25922.
Test [10] has as its system Pseudomonas aeruginosa ATCC 15692.

For `CC[C@H](C)[C@H](N)C(=O)N[C@@H](Cc1cnc[nH]1)C(=O)N[C@@H](CCCCN)C(=O)N[C@@H](Cc1ccccc1)C(=O)N[C@@H](Cc1c[nH]c2ccccc12)C(=O)N[C@@H](CCCN=C(N)N)C(=O)N1CCC[C@H]1C(=O)NCC(=O)N[C@@H](CCCN=C(N)N)C(=O)N[C@@H](Cc1c[nH]c2ccccc12)C(=O)N[C@@H](Cc1ccccc1)C(=O)N[C@@H](CCCCN)C(=O)N[C@@H](Cc1cnc[nH]1)C(=O)N[C@H](C(N)=O)[C@@H](C)CC` [IHKFWRPGRWFKHI], the MIC in test [1] was determined as 16 µM (≈ 30.5 µg/mL); against Escherichia coli UB1005 it was 4 µM (≈ 7.63 µg/mL); in test [2], 4 µM (≈ 7.63 µg/mL); in test [3], 8 µM (≈ 15.3 µg/mL); in [4], 16 µM (≈ 30.5 µg/mL); in test [5], 8 µM (≈ 15.3 µg/mL). The MIC in [6] came to 4 µM (≈ 7.63 µg/mL); in test [7], 8 µM (≈ 15.3 µg/mL).
On to `CC(C)C[C@H](NC(=O)[C@H](CCCNC(=N)N)NC(=O)CNC(=O)CNC(=O)[C@@H](N)CCCNC(=N)N)C(=O)N[C@@H](CS)C(=O)N[C@@H](Cc1ccc(O)cc1)C(=O)N[C@@H](CS)C(=O)N[C@@H](CCCNC(=N)N)C(=O)N[C@@H](CCCNC(=N)N)C(=O)N[C@@H](CCCNC(=N)N)C(=O)N[C@@H](Cc1ccccc1)C(=O)N[C@@H](CS)C(=O)N[C@H](C(=O)N[C@@H](CS)C(=O)N[C@H](C(=O)NCC(=O)N[C@@H](CCCNC(=N)N)C(N)=O)C(C)C)C(C)C` [RGGRLCYCRRRFCVCVGR], for which the MIC in test [1] stood at 2 µM (≈ 4.32 µg/mL); against Escherichia coli UB1005, 2 µM (≈ 4.32 µg/mL); in [2], 16 µM (≈ 34.6 µg/mL); in test [3], 8 µM (≈ 17.3 µg/mL); in [4], 16 µM (≈ 34.6 µg/mL); in test [5], 8 µM (≈ 17.3 µg/mL). The MIC in test [6] was found to be 2 µM (≈ 4.32 µg/mL); in test [7], 16 µM (≈ 34.6 µg/mL).
For `CC[C@H](C)[C@H](NC(=O)[C@H](Cc1cnc[nH]1)NC(=O)[C@H](Cc1cnc[nH]1)NC(=O)[C@@H](NC(=O)[C@H](CC(C)C)NC(=O)[C@H](Cc1cnc[nH]1)NC(=O)CNC(=O)[C@H](C)NC(=O)CNC(=O)[C@H](Cc1cnc[nH]1)NC(=O)[C@@H](NC(=O)[C@@H](NC(=O)[C@H](CO)NC(=O)CNC(=O)[C@H](C)NC(=O)[C@H](Cc1ccccc1)NC(=O)[C@H](CCCN=C(N)N)NC(=O)[C@H](CC(C)C)NC(=O)[C@@H](N)Cc1ccccc1)C(C)C)[C@@H](C)CC)C(C)C)C(=O)NCC(=O)N[C@H](C(=O)N[C@@H](C)C(=O)N[C@@H](CC(C)C)C(N)=O)C(C)C` [FLRFAGSVIHGAGHLVHHIGVAL], the MIC in test [8] was not below 64 µM; in [9], 4 µM and 8 µM; in test [10], not below 32 µM.
In the case of `CC[C@H](C)[C@H](NC(=O)CNC(=O)[C@H](Cc1cnc[nH]1)NC(=O)[C@@H](NC(=O)[C@@H](NC(=O)[C@H](CO)NC(=O)CNC(=O)[C@@H](NC(=O)[C@H](Cc1ccccc1)NC(=O)[C@H](CCCN=C(N)N)NC(=O)[C@H](CC(C)C)NC(=O)[C@@H](N)Cc1ccccc1)[C@@H](C)CC)C(C)C)[C@@H](C)CC)C(=O)NCC(=O)N[C@@H](Cc1cnc[nH]1)C(=O)N[C@@H](CC(C)C)C(=O)N[C@H](C(=O)N[C@@H](Cc1cnc[nH]1)C(=O)N[C@@H](Cc1cnc[nH]1)C(=O)N[C@H](C(=O)NCC(=O)N[C@H](C(=O)N[C@@H](C)C(=O)N[C@@H](CC(C)C)C(N)=O)C(C)C)[C@@H](C)CC)C(C)C` [FLRFIGSVIHGIGHLVHHIGVAL], the MIC in [8] and in test [10] was not below 64 µM throughout.

The MIC is the least concentration at which growth counts as inhibited.
